Consider five compounds from patent US20250098692A1, “GERMINATION/SPROUTING AND FRUIT RIPENING REGULATORS” (The United States of America, as Represented by the …, priority 2021, published 2025).

In assay [1] the test system is strawberry fruit. Nature of the assay: PAD analogs: ability to delay strawberry fruit ripening. The format is in vivo. The following applies: for effect on strawberry fruit ripening: 50 μM in 0.1% TRITON-X 100. As for the experimental part:
Chemicals with similarity to PAD were tested for their ability to delay fruit ripening.
To the inventors' knowledge, no chemical closely-related to PAD is currently commercially available. A few analogs with 88-99% similarity to PAD were found in the ChemBridge database used in Example 1.

The subject of assay [2] is strawberry fruit. Nature of the assay: Strawberry fruit ripening after dipping fruits on the plant. Format: in vivo, Fragaria x ananassa CV. Albion. The following applies: for strawberry appearance (FIG. 2B): 8 DAT; for strawberry appearance (FIG. 2B) / strawberry appearance (FIG. 2C) / strawberry appearance (FIG. 2D) / strawberry appearance (FIG. 2E) / strawberry appearance (FIG. 2F) / fruit started to turn red: 10 μM PAD or 1 mM ABA; for strawberry appearance (FIG. 2C): 9 DAT; for strawberry appearance (FIG. 2D): 10 DAT; for strawberry appearance (FIG. 2E): 11 DAT; for strawberry appearance (FIG. 2F): 12 DAT; for effect on strawberry fruit ripening compared to mock-treated fruit: dipped 20 seconds eight days after pollination, 10 μM PAD or 1 mM ABA in 0.1% TRITON X-100. On the procedure: Strawberry plants (Fragaria x ananassa CV. Albion) were grown in a greenhouse at 28° C. and 14-hour light/10-hour dark conditions. Eight days after pollination, fruits were dipped for 20 seconds in 10 µM PAD in 0.1% TRITON X-100 surfactant; 1 mM ABA in 0.1% TRITON X-100 surfactant; or buffer alone (0.1% Triton X-100). Fruits were allowed to continue growing on the plants. FIG. 1 depicts images of strawberry fruit development under standard conditions.
Of the twelve chemicals identified in Example 1 as promoting seed germination, N-[3-chloro-4-(4-propionyl-1-piperazinyl)phenyl]-2-phenylacetamide was named “PAD,” and used for further study. […] Mock-treated fruit started to turn red at 10 DAT, and reached full red at 12 DAT. ABA-treated fruit started to turn red 9 DAT, and reached full red 11 DAT. In contrast, PAD-treated fruit only started turning red 12 DAT.

Another assay deals with Cherry tomato fruits. As to the kind of experiment: Cherry tomato ripening after injection at mature green stage. The format is in vivo. The following applies: for cherry tomato appearance (FIG. 3B, FIG. 3D): 6 DAT, injected 10 µM PAD or 200 μM ABA (figure legend); for ripening stage of cherry tomato fruits: six days after treatment, injected 50 μM PAD or 200 μM ABA. As for the experimental part: Cherry tomato fruits at mature green stage were purchased from Butler's Orchard (Germantown, Maryland, USA). […] FIG. 3A and FIG. 3B show images of cherry tomatoes injected with 50 µM PAD. FIG. 3C and FIG. 3D show images of cherry tomatoes injected with 200 μM ABA. FIG. 3E and FIG. 3F show images of cherry tomatoes injected with buffer alone. FIG. 3G and FIG. 3H show images of untreated tomatoes. FIG. 3A; FIG. 3C; FIG. 3E; and FIG. 3G show images taken the day of treatment. FIG. 3B; FIG. 3D; […]; and FIG. 3H show images taken 6 DAT.

For assay [3], the system named is strawberry fruit. As to the kind of experiment: Strawberry fruit ripening after injection of fruits. Format: in vivo, Fragaria x ananassa CV. Albion. The settings on record: for strawberry appearance (FIG. 4A): 8 DAT; for strawberry appearance (FIG. 4A) / strawberry appearance (FIG. 4B) / strawberry appearance (FIG. 4C) / strawberry appearance (FIG. 4D) / strawberry appearance (FIG. 4E) / fruit started to turn red: 10 µM PAD or 200 μM ABA; for strawberry appearance (FIG. 4B): 9 DAT; for strawberry appearance (FIG. 4C): 10 DAT; for strawberry appearance (FIG. 4D): 11 DAT; for strawberry appearance (FIG. 4E): 12 DAT. As for the experimental part: Strawberry plants (Fragaria x ananassa CV. Albion) were grown and maintained as disclosed above. Fourteen days after pollination fruits were injected with 10 µM PAD in 0.1% TRITON X-100 surfactant; 200 μM ABA in 0.1% TRITON X-100 surfactant; or buffer alone (0.1% Triton X-100 surfactant).
FIG. 4A to FIG. 4F depict images of strawberries treated with either 10 µM PAD in 0.1% TRITON X-100 surfactant; 200 μM ABA in 0.1% TRITON X-100 surfactant; buffer alone ([…] surfactant; mock-treated); or not injected (control). […] Control fruit started to turn red 11 DAT, and reached full red at 12 DAT. Mock-treated fruit started to turn red at 10 DAT, and reached full red at 12 DAT. ABA-treated fruit started to turn red 9 DAT, and reached full red 11 DAT. In contrast, PAD-treated fruit only started turning red 12 DAT.

Assay [4] deals with Strawberry seeds (Fragaria x ananassa CV. Albion). As to the kind of experiment: Chemical library screening for promotion of strawberry seed germination. The format is in vivo. The following applies: about 5 μM chemical in 0.1% TRITON X-100, 96 well plates, 25 C. An excerpt: Chemical libraries of small compounds were screened for compounds capable of promoting seed germination, delaying the fruit ripening process, and/or retarding fruit pigmentation. A chemical library containing 10,000 small compounds (˜300 Dalton) was purchased from ChemBridge Co (San Diego, California, USA). Strawberry seeds (Fragaria x ananassa CV. Albion) were purchased from Johnny's Seeds (Fairfield, Maine, USA). Five to six seeds were sterilized with 70% ethanol and added to each well of 96 well ELISA plates containing about 5 μM chemical in 0.1% TRITON X-100 surfactant (polyethylene glycol tert-octylphenyl ether). One mM abscisic acid (ABA), a hormone that inhibits seed germination, and gibberellic acid (GA3), a hormone that promotes seed germination, were used as controls. Each experiment was conducted in triplicate. Plates were kept in a growth chamber at 25 C under dark, and a 14 hour light/10 hour dark cycle was added after seed germination was observed.

Assay [5] deals with strawberry fruit. As to the kind of experiment: Strawberry fruit ripening after dipping fruits on the plant. The following applies: 10 μM PAD applied on day 9 after pollination. Format: in vivo, Fragaria x ananassa CV. Albion.

Molecules are shown by their SMILES.

Turning to `CC(C)C(=O)N1CCN(c2ccc(NC(=O)Cc3ccc(Cl)cc3)cc2)CC1` [2-(4-chlorophenyl)-N-[4-(4-isobutyryl-1-piperazinyl)phenyl]acetamide], the “effect on strawberry fruit ripening” value in the assay on strawberry fruit [1] is “no obvious effect”.

On to `CC1=CC(=O)CC(C)(C)[C@@]1(O)/C=C/C(C)=C\C(=O)O` [ABA, abscisic acid, reference compound], for which, in the assay with strawberry fruit [2] (dipped), the “strawberry appearance (FIG. 2B)” value is “white”, the “strawberry appearance (FIG. 2C)” value is recorded as “with pink spots”, the “strawberry appearance (FIG. 2D)” value is given as “mostly red” and the “strawberry appearance (FIG. 2E)” value is listed as “red”. For the same compound, the “strawberry appearance (FIG. 2F)” value in the assay on strawberry fruit [2] (dipped) is reported as “red”. The “effect on strawberry fruit ripening compared to mock-treated fruit” value in the assay with strawberry fruit [2] is reported as “stimulated strawberry fruit ripening”. In addition, in the assay on strawberry fruit [2] (dipped, days after treatment), the “fruit started to turn red” value stood at 9 DAT. For the same compound, the “fruit reached full red” value with strawberry fruit [2] (dipped, 1 mM ABA, days after treatment) is given as 11 DAT. Moreover, in the assay on Cherry tomato fruits, the “cherry tomato appearance (FIG. 3B, FIG. 3D)” value is reported as “red” and the “ripening stage of cherry tomato fruits” value is on record as “fully ripen (red stage)”. In the assay on strawberry fruit [3] (injected), the “strawberry appearance (FIG. 4A)” value is listed as “with pink spots”, the “strawberry appearance (FIG. 4B)” value is recorded as “mostly red”, the “strawberry appearance (FIG. 4C)” value was “mostly red” and the “strawberry appearance (FIG. 4D)” value is “mostly red”. In addition, the “strawberry appearance (FIG. 4E)” value in the assay with strawberry fruit [3] (injected) is “red”. The “fruit started to turn red” value in the assay with strawberry fruit [3] (injected, days after treatment) is given as 9 DAT. For the same compound, the “fruit reached full red” value in the assay with strawberry fruit [3] (injected, 200 μM ABA, days after treatment) turned out to be 11 DAT.

Take `CC(C)C(=O)N1CCN(c2ccc(NC(=O)C(c3ccccc3)c3ccccc3)cc2Cl)CC1` [N-(3-chloro-4-(4-isobutyryl-1-piperazinyl)phenyl]-2,2-diphenylacetamide]: the “effect on strawberry fruit ripening” value in the assay on strawberry fruit [1] was “no obvious effect”.

Turning to `CC(C)(C)C(=O)N1CCN(c2ccc(NC(=O)Cc3ccccc3)cc2Cl)CC1` [N-(3-chloro-4-[4-(2,2-dimethylpropanoyl)-1-piperazinyl]phenyl)-2-phenylacetamide], in the assay with strawberry fruit [1], the “effect on strawberry fruit ripening” value is “delayed strawberry fruit ripening”. Also, in the assay with strawberry fruit [1] (50 μM in 0.1% TRITON-X 100, same timing as PAD), the “effectiveness in delaying strawberry fruit ripening relative to PAD” value is on record as “much less effectively than PAD”.

As to `CCC(=O)N1CCN(c2ccc(NC(=O)Cc3ccccc3)cc2Cl)CC1` [PAD, N-[3-chloro-4-(4-propionyl-1-piperazinyl)phenyl]-2-phenylacetamide], the promoting seed germination entry in assay [4] is on record as “promoted seed germination”. Besides, in the assay on strawberry fruit [2] (dipped), the “strawberry appearance (FIG. 2B)” value was “white with a greenish tint”, the “strawberry appearance (FIG. 2C)” value is “whit with a greenish tint”, the “strawberry appearance (FIG. 2D)” value was “white with a greenish tint” and the “strawberry appearance (FIG. 2E)” value was “white”. In addition, the “strawberry appearance (FIG. 2F)” value with strawberry fruit [2] (dipped) is “red with some yellow”. Moreover, in the assay on strawberry fruit [2] (PAD-treated vs mock-treated), the “fresh weight of strawberry fruit larger than mock-treated” value is listed as “about 10%” and the “sugar content versus mock-treated controls” value was “no difference in the sugar content”. Moreover, the “effect on strawberry fruit ripening compared to mock-treated fruit” value with strawberry fruit [2] was “delayed fruit ripening”. Besides, the “fruit started to turn red” value with strawberry fruit [2] (dipped, days after treatment) is recorded as 12 DAT. For the same compound, in the assay on Cherry tomato fruits, the “cherry tomato appearance (FIG. 3B, FIG. 3D)” value is “with a yellow and/or yellow/red tint” and the “ripening stage of cherry tomato fruits” value is given as “still at a green stage”. For the same compound, the “effect on cherry tomato ripening compared to mock-treated or untreated” value in the assay with Cherry tomato fruits (injected 50 μM PAD) was “delay in cherry tomato ripening”. The “delay in cherry tomato fruit ripening” value in the assay with Cherry tomato fruits (mature green stage, 50 μM PAD) is given as “about a seven-day delay”. Moreover, in the assay on strawberry fruit [3] (injected), the “strawberry appearance (FIG. 4A)” value was “with pink spots”, the “strawberry appearance (FIG. 4B)” value is recorded as “orange”, the “strawberry appearance (FIG. 4C)” value is listed as “mostly red” and the “strawberry appearance (FIG. 4D)” value is recorded as “mostly red”. In addition, the “strawberry appearance (FIG. 4E)” value in the assay on strawberry fruit [3] (injected) is recorded as “red”. In the assay with strawberry fruit [3] (injected fourteen days after pollination, 10 µM PAD), the “effect on strawberry fruit ripening compared to not-treated, mock-treated and ABA treated fruit” value was “delayed fruit ripening”. In addition, the “fruit started to turn red” value in the assay with strawberry fruit [3] (injected, days after treatment) amounted to 12 DAT. Also, in the assay on strawberry fruit [5], the “delay of strawberry fruit ripening compared with mock-treated” value is on record as “about 2 days”.
